Patent publication US20260250257A1, “ANTIBACTERIAL AND SYNERGISTIC ACTIVE COMPOUND AND USE THEREOF” (EAST CHINA UNIVERSITY OF SCIENCE AND TECHNOLOGY, priority 2023, published 2026)
≈ marks a conversion by molar mass, not a printed value.

Key:
[1] = test system: ATCC13883 strain (Klebsiella pneumoniae); test: Checkerboard antibacterial synergistic activity test with polymyxin E (FIC); assay type: cell-based; design: key: FIC≤0.5 synergy; 0.5–1 additive; 1–2 indifferent; ≥2 antagonism; settings: combined with polymyxin E
How it was run: (§1)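 FIC values come from a microdilution checkerboard crossing polymyxin E against the test compound in MH medium, with uninoculated blanks included. Incubation lasts 16 h at 37° C. Scoring: synergy at FIC ≤0.5, additivity between 0.5 and 1, indifference between 1 and 2, antagonism at 2 or above.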

[2] = test system: ATCC19606 strain (Acinetobacter baumannii); test: as above; assay type: cell-based; design: key: FIC≤0.5 synergy; 0.5–1 additive; 1–2 indifferent; ≥2 antagonism; settings: combined with polymyxin E
How it was run: as §1

[3] = test system: ATCC25922 strain (Escherichia coli); test: as above; assay type: cell-based; design: key: FIC≤0.5 synergy; 0.5–1 additive; 1–2 indifferent; ≥2 antagonism; settings: combined with polymyxin E
How it was run: as §1

[4] = test system: ATCC9027 strain (Pseudomonas aeruginosa); test: as above; assay type: cell-based; design: key: FIC≤0.5 synergy; 0.5–1 additive; 1–2 indifferent; ≥2 antagonism; settings: combined with polymyxin E
How it was run: as §1

[5] = test system: ATCC13883 strain (Klebsiella pneumoniae); test: Broth microdilution, antibacterial activity of the compound used alone; assay type: cell-based; settings: for MIC: read-out: Antibacterial activity of the compound of Formula I, ATCC13883
Excerpt: (§2) The broth microdilution method was used to test the antibacterial effects of the compounds of the present invention against various Gram-negative bacterial strains when used alone.

[6] = test system: ATCC19606 strain (Acinetobacter baumannii); test: as above; assay type: cell-based; settings: for MIC: read-out: Antibacterial activity of the compound of Formula I, ATCC19606
Excerpt: as §2

[7] = test system: ATCC25922 strain (Escherichia coli); test: as above; assay type: cell-based; settings: for MIC: read-out: Antibacterial activity of the compound of Formula I, ATCC25922
Excerpt: as §2

[8] = test system: ATCC9027 strain (Pseudomonas aeruginosa); test: as above; assay type: cell-based; settings: for MIC: read-out: Antibacterial activity of the compound of Formula I, ATCC9027
Excerpt: as §2

[9] = test system: clinical strains of Acinetobacter baumannii; test: Synergistic effect (FIC) on inhibiting clinical strains of Acinetobacter baumannii; assay type: cell-based; settings: for FIC: with polymyxin E
Procedure: Polymyxin E was diluted in sterile MH broth medium to concentrations of 16, 8, 4, 2, 1, 0.5, 0.25, 0.125, 0.0625, 0.031, and 0.015 μg/ml, and the drug to be tested was diluted to concentrations of 256, 128, 64, 32, 16, 8, and 4 μg/ml. According to the checkerboard method, combinations of the drug to be tested and polymyxin at different concentrations in ascending order were placed into a 96-well plate, and corresponding blank control groups were set up. 50 μl of the drug solution was added to each well, then 100 μl of bacterial liquid was added, and incubated in a 37° C. incubator for 16 hours. […] Calculation and judgment criteria:
Fractional Inhibitory Concentration (FIC) is calculated as follows: […]
Judgment criteria: FIC≤0.5: synergistic effect; 0.5<FIC<1: additive effect; 1<FIC<2: indifferent effect; FIC≥2: antagonistic effect.
(§3) Compound I-82 of the present invention was used as the representative compound and tested against clinical strains of Acinetobacter baumannii. […] The selected A. baumannii strains were isolated from hospital clinical samples and preserved in the laboratory for research purposes.

[10] = test system: ATCC19606 strains (Acinetobacter baumannii); test: In vivo synergistic bactericidal activity with polymyxin E, mouse bacteremia model; design: species or system Balb/c mice; settings: for survival rate / synergistic effects with Polymyxin E in vivo: Polymyxin E 0.5 mg/kg + compound 16 mg/kg, Balb/c mice infected with ATCC19606; for survival rate: intraperitoneal
Procedure: Representative compounds I-14 and I-82 were tested for their in vivo synergistic bactericidal activities when combined with polymyxin E. The specific method is as follows:
Normal Balb/c mice (6-8 weeks old) were used, and the animals were randomly divided into four groups (5 mice per group): • I: Control group • II: Polymyxin E at 0.5 mg/kg body weight • III: Polymyxin E at 0.5 mg/kg body weight+Compound I-14 at 16 mg/kg • IV: Polymyxin E at 0.5 mg/kg body weight+Compound I-82 at 16 mg/kg
Freshly cultured ATCC19606 strains (logarithmic growth phase) were washed with saline, adjusted to an OD600 of ~1.0, and mixed at 1:1 (v/v) with 10% porcine mucin. Each mouse was intraperitoneally administered 500 μl of the mixture. 1 hour later, an intraperitoneal injection was given again, with the control group receiving only saline.

[11] = test system: clinical strains of Acinetobacter baumannii; test: MIC of polymyxin E against polymyxin E-resistant clinical strains; assay type: cell-based
Excerpt: as §3

Row | Molecule | Synergistic activity (FIC value) ATCC13883 [1] | Synergistic activity (FIC value) ATCC19606 [2] | Synergistic activity (FIC value) ATCC25922 [3] | Synergistic activity (FIC value) ATCC9027 [4] | MIC [5] [µg/mL] | MIC [6] [µg/mL] | MIC [7] [µg/mL] | MIC [8] [µg/mL] | survival rate ([10]; Day 5) | synergistic effects with Polymyxin E in vivo [10] | Antibacterial activity of the compound of Formula I, ATCC13883 [5] [µg/mL] | Antibacterial activity of the compound of Formula I, ATCC19606 [6] [µg/mL] | Antibacterial activity of the compound of Formula I, ATCC25922 [7] [µg/mL] | Antibacterial activity of the compound of Formula I, ATCC9027 [8] [µg/mL] | other results
1 | Cc1ccc(Oc2ccccc2-c2csc(N=C(N)N)n2)c(C)c1 [Compound I-82] | 0.16 | 0.03 | 0.18 | 0.28 | 256 (≈ 756 µM) | 256 (≈ 756 µM) | 256 (≈ 756 µM) | 256 (≈ 756 µM) | above 60% | synergistic effects |  |  |  |  | Synergistic effects against clinical strains of A. baumannii ([9]; clinical strains with various resistance profiles): broad-spectrum synergistic effects; FIC ([9]; strain aba 30): 0.08; FIC ([9]; strain aba 39 (polymyxin E-resistant)): 0.13; FIC ([9]; strain aba 1611): 0.09; FIC ([9]; strain aba 1613): 0.13; FIC ([9]; strain aba 1617): 0.08; FIC ([9]; strain aba 1638): 0.02; FIC ([9]; strain aba 1645): 0.16; FIC ([9]; strain aba 4201): 0.09; FIC ([9]; strain aba 4230): 0.06; FIC ([9]; strain aba 6359): 0.09; FIC ([9]; strain aba 6380): 0.14; FIC ([9]; strain aba 6382): 0.09; FIC ([9]; strain aba 6410): 0.06; FIC ([9]; strain aba mia): 0.05; FIC ([9]; strain aba pmrA (polymyxin E-resistant)): 0.16
2 | polymyxin E |  |  |  |  |  |  |  |  |  |  |  |  |  |  | MIC ([11]; strain aba39): 64 µg/mL; MIC ([11]; strain aba pmrA): 256 µg/mL; therapeutic effect on bacteremia in mice ([10]; Polymyxin E alone 0.5 mg/kg, Day 5, all mice died): no therapeutic effects
3 | CC(C)(C)c1cc(-c2csc(N=C(N)N)n2)cc(C(C)(C)C)c1O [Compound I-14] | 0.31 | 0.13 | 0.38 | 0.53 | 256 (≈ 739 µM) | 256 (≈ 739 µM) | 256 (≈ 739 µM) | 256 (≈ 739 µM) | 80% | synergistic effects |  |  |  |  | 
4 | N#Cc1cccc(-c2csc(N=C(N)N)n2)c1 [Compound I-21] | 0.52 | 0.52 | 0.63 | 1.25 |  |  |  |  |  |  | 128 | 256 | 128 | 64 | 
5 | NC(N)=Nc1nc(-c2cccc(NC(=O)NC3CC3)c2)cs1 [Compound I-31] | 0.31 | 0.25 | 0.56 | 0.5 |  |  |  |  |  |  | 256 | 256 | 256 | 256 | 
6 | Fc1ccc(-c2csc(N=C3NCCCN3)n2)c(Oc2ccc(Cl)cc2Cl)c1 [Compound I-151] | 0.16 | 0.03 | 0.18 | 0.28 |  |  |  |  |  |  | 256 | 256 | 256 | 256 | 
